In ChEMBL document CHEMBL3864142, “Allicin-inspired thiolated fluoroquinolones as antibacterials against ESKAPE pathogens” (2016):
Converted amounts (≈) assume the structure as drawn. The source made the active and inactive calls. No cut-off for these calls is given here.

Tests used:
Staphylococcus aureus [1] = experiment: Antibacterial activity against methicillin-susceptible Staphylococcus aureus ATCC 29213 by broth microdilution method; format: functional
Staphylococcus aureus [2] = experiment: Antibacterial activity against methicillin-resistant Staphylococcus aureus BAA-1747 by broth microdilution method; format: functional
[3] = Antibacterial activity against vancomycin-intermediate resistant Staphylococcus aureus Mu50 ATCC 700699 by broth microdilution method; format: functional, Staphylococcus aureus subsp. aureus Mu50
Staphylococcus aureus [4] = experiment: Bactericidal activity against methicillin-susceptible Staphylococcus aureus ATCC 29213 by broth microdilution method; format: functional
Staphylococcus aureus [5] = experiment: Bactericidal activity against methicillin-resistant Staphylococcus aureus BAA-1747 by broth microdilution method; format: functional
[6] = Bactericidal activity against vancomycin-intermediate resistant Staphylococcus aureus Mu50 ATCC 700699 by broth microdilution method; format: functional, Staphylococcus aureus subsp. aureus Mu50
Staphylococcus aureus [7] = experiment: Ratio of MBC to MIC for methicillin-susceptible Staphylococcus aureus ATCC 29213; format: functional
Staphylococcus aureus [8] = experiment: Ratio of MBC to MIC for methicillin-resistant Staphylococcus aureus BAA-1747; format: functional
Staphylococcus aureus [9] = experiment: Ratio of MBC to MIC for vancomycin-intermediate resistant Staphylococcus aureus Mu50 ATCC 700699; format: functional
Enterococcus faecium [10] = experiment: Antibacterial activity against vancomycin-resistant Enterococcus faecium ATCC 700221 at 10 uM by disc diffusion method; format: functional; details: read-out: DIZ
Staphylococcus aureus [11] = experiment: Antibacterial activity against methicillin-resistant Staphylococcus aureus BAA-1747 at 10 uM by disc diffusion method; format: functional; details: read-out: DIZ
Klebsiella pneumoniae [12] = experiment: Antibacterial activity against ESBL-producer Klebsiella pneumoniae K6 700603 at 10 uM by disc diffusion method; format: functional; details: read-out: DIZ
Acinetobacter baumannii [13] = experiment: Antibacterial activity against ciprofloxacin-resistant Acinetobacter baumannii BAA-1605 at 10 uM by disc diffusion method; format: functional; details: read-out: DIZ
Pseudomonas aeruginosa [14] = experiment: Antibacterial activity against Pseudomonas aeruginosa ATCC 15442 at 10 uM by disc diffusion method; format: functional; details: read-out: DIZ
Enterococcus faecalis = experiment: Antibacterial activity against vancomycin-susceptible Enterococcus faecalis ATCC 29212 at 10 uM by disc diffusion method; format: functional; details: read-out: DIZ
Staphylococcus aureus [15] = experiment: Antibacterial activity against methicillin-susceptible Staphylococcus aureus ATCC 29213 at 10 uM by disc diffusion method; format: functional; details: read-out: DIZ
[16] = Antibacterial activity against vancomycin-intermediate resistant Staphylococcus aureus Mu50 ATCC 700699 at 10 uM by disc diffusion method; format: functional, Staphylococcus aureus subsp. aureus Mu50; details: read-out: DIZ
Acinetobacter baumannii [17] = experiment: Antibacterial activity against Acinetobacter baumannii ATCC 19606 at 10 uM by disc diffusion method; format: functional; details: read-out: DIZ
[18] = Antibacterial activity against Bacillus anthracis Sterne 34F2 at 10 uM by disc diffusion method; format: functional, Bacillus anthracis str. Sterne; details: read-out: DIZ
Staphylococcus aureus [19] = experiment: Induction of reactive oxygen species formation in Staphylococcus aureus at 25 uM after 0.5 hrs by DCFH-DA probe-based fluorometric assay relative to control; format: functional
Staphylococcus aureus [20] = experiment: Antibacterial activity against Staphylococcus aureus after overnight incubation in presence of antioxidant vitamin E by double-diffusion assay; format: functional
Staphylococcus aureus [21] = experiment: Antibacterial activity against Staphylococcus aureus after overnight incubation in presence of GSH by double-diffusion assay; format: functional
Enterococcus faecium [22] = experiment: Antibacterial activity against vancomycin-resistant Enterococcus faecium ATCC 700221 at 50 uM by disc diffusion method; format: functional; details: read-out: DIZ
Staphylococcus aureus [23] = experiment: Antibacterial activity against methicillin-resistant Staphylococcus aureus BAA-1747 at 50 uM by disc diffusion method; format: functional; details: read-out: DIZ
Klebsiella pneumoniae [24] = experiment: Antibacterial activity against ESBL-producer Klebsiella pneumoniae K6 700603 at 50 uM by disc diffusion method; format: functional; details: read-out: DIZ
Acinetobacter baumannii [25] = experiment: Antibacterial activity against ciprofloxacin-resistant Acinetobacter baumannii BAA-1605 at 50 uM by disc diffusion method; format: functional; details: read-out: DIZ
Pseudomonas aeruginosa [26] = experiment: Antibacterial activity against Pseudomonas aeruginosa ATCC 15442 at 50 uM by disc diffusion method; format: functional; details: read-out: DIZ
Enterobacter cloacae [27] = experiment: Antibacterial activity against Enterobacter cloacae ATCC 23355 at 50 uM by disc diffusion method; format: functional; details: read-out: DIZ
Enterococcus faecium [28] = experiment: Antibacterial activity against vancomycin-resistant Enterococcus faecium ATCC 700221 at 25 uM in presence of 10 uM ciprofloxacin by disc diffusion method; format: functional
Staphylococcus aureus [29] = experiment: Antibacterial activity against methicillin-resistant Staphylococcus aureus BAA-1747 at 25 uM in presence of 10 uM ciprofloxacin by disc diffusion method; format: functional
Klebsiella pneumoniae [30] = experiment: Antibacterial activity against ESBL-producer Klebsiella pneumoniae K6 700603 at 25 uM in presence of 10 uM ciprofloxacin by disc diffusion method; format: functional
Acinetobacter baumannii [31] = experiment: Antibacterial activity against ciprofloxacin-resistant Acinetobacter baumannii BAA-1605 at 25 uM in presence of 10 uM ciprofloxacin by disc diffusion method; format: functional
Pseudomonas aeruginosa [32] = experiment: Antibacterial activity against Pseudomonas aeruginosa ATCC 15442 at 25 uM in presence of 10 uM ciprofloxacin by disc diffusion method; format: functional
Enterobacter cloacae [33] = experiment: Antibacterial activity against Enterobacter cloacae ATCC 23355 at 25 uM in presence of 10 uM ciprofloxacin by disc diffusion method; format: functional
Enterococcus faecium [34] = experiment: Antibacterial activity against vancomycin-resistant Enterococcus faecium ATCC 700221 at 50 uM in presence of 10 uM ciprofloxacin by disc diffusion method; format: functional
Staphylococcus aureus [35] = experiment: Antibacterial activity against methicillin-resistant Staphylococcus aureus BAA-1747 at 50 uM in presence of 10 uM ciprofloxacin by disc diffusion method; format: functional
Klebsiella pneumoniae [36] = experiment: Antibacterial activity against ESBL-producer Klebsiella pneumoniae K6 700603 at 50 uM in presence of 10 uM ciprofloxacin by disc diffusion method; format: functional
Acinetobacter baumannii [37] = experiment: Antibacterial activity against ciprofloxacin-resistant Acinetobacter baumannii BAA-1605 at 50 uM in presence of 10 uM ciprofloxacin by disc diffusion method; format: functional
Pseudomonas aeruginosa [38] = experiment: Antibacterial activity against Pseudomonas aeruginosa ATCC 15442 at 50 uM in presence of 10 uM ciprofloxacin by disc diffusion method; format: functional
Enterobacter cloacae [39] = experiment: Antibacterial activity against Enterobacter cloacae ATCC 23355 at 50 uM in presence of 10 uM ciprofloxacin by disc diffusion method; format: functional
Enterobacter cloacae [40] = experiment: Antibacterial activity against Enterobacter cloacae ATCC 23355 at 10 uM by disc diffusion method; format: functional; details: read-out: DIZ
[41] = system: Staphylococcus epidermidis; experiment: Antibacterial activity against Staphylococcus epidermidis ATCC 14990 at 10 uM by disc diffusion method; format: functional; details: read-out: DIZ
[42] = Glutathione reactivity assessed as formation of S-(propylthio)glutathione and ciprofloxacin at 1 uM after 2 hrs by ESI-positive MS method

| SMILES | MIC (Staphylococcus aureus [1]) [µM] | MIC (Staphylococcus aureus [2]) [µM] | MIC [3] [µM] | MBC (Staphylococcus aureus [4]) [µM] | MBC (Staphylococcus aureus [5]) [µM] | MBC [6] [µM] | zone of inhibition at 10 µM (Enterococcus faecium [10]) [mm] | zone of inhibition at 10 µM (Staphylococcus aureus [11]) [mm] | zone of inhibition at 10 µM (Klebsiella pneumoniae [12]) [mm] | zone of inhibition at 10 µM (Acinetobacter baumannii [13]) [mm] | zone of inhibition at 10 µM (Pseudomonas aeruginosa [14]) [mm] | zone of inhibition at 10 µM (Enterococcus faecalis) [mm] | zone of inhibition at 10 µM (Staphylococcus aureus [15]) [mm] | zone of inhibition at 10 µM [16] [mm] | zone of inhibition at 10 µM (Acinetobacter baumannii [17]) [mm] | zone of inhibition at 10 µM [18] [mm] | zone of inhibition at 10 µM (Enterobacter cloacae [40]) [mm] | zone of inhibition at 10 µM [41] [mm] | also measured |
| --- | --- | --- | --- | --- | --- | --- | --- | --- | --- | --- | --- | --- | --- | --- | --- | --- | --- | --- | --- |
| CN[C@H](CC(C)C)C(=O)N[C@H]1C(=O)N[C@@H](CC(N)=O)C(=O)N[C@H]2C(=O)N[C@H]3C(=O)N[C@H](C(=O)N[C@H](C(=O)O)c4cc(O)cc(O)c4-c4cc3ccc4O)[C@H](O)c3ccc(c(Cl)c3)Oc3cc2cc(c3O[C@@H]2O[C@H](CO)[C@@H](O)[C@H](O)[C@H]2O[C@H]2C[C@](C)(N)[C@H](O)[C@H](C)O2)Oc2ccc(cc2Cl)[C@H]1O [VANCOMYCIN] | 0.1 (≈ 0.145 µg/mL) | 0.1 (≈ 0.145 µg/mL) | 0.78 (≈ 1.13 µg/mL) | 0.1 (≈ 0.145 µg/mL) | 0.1 (≈ 0.145 µg/mL) | 0.78 (≈ 1.13 µg/mL) |  |  |  |  |  |  |  |  |  |  |  |  | Ratio (Staphylococcus aureus [7]): 1; Ratio (Staphylococcus aureus [8]): 1; Ratio (Staphylococcus aureus [9]): 1 |
| O=C(O)c1cn(C2CC2)c2cc(N3CCNCC3)c(F)cc2c1=O [CIPROFLOXACIN] | 0.1 (≈ 0.0331 µg/mL) | 1.56 (≈ 0.517 µg/mL) | 50 (≈ 16.6 µg/mL) | 0.78 (≈ 0.258 µg/mL) | 3.13 (≈ 1.04 µg/mL) | 50 (≈ 16.6 µg/mL) | 0 | 20 | 22 | 0 | 29 | 22 | 23 | 9 | 23 | 34 |  |  | fold change (FC) (Staphylococcus aureus [19]): 2 - 3; Activity (Staphylococcus aureus [20]): Active; Activity (Staphylococcus aureus [21]): Active |
| C=CCS[S+]([O-])CC=C (configuration not stated) [ALLICIN] |  |  |  |  |  |  |  |  |  |  |  |  |  |  |  |  |  |  | zone of inhibition at 50 µM (Enterococcus faecium [22]): 18 mm; zone of inhibition at 50 µM (Staphylococcus aureus [23]): 28 mm; zone of inhibition at 50 µM (Klebsiella pneumoniae [24]): 13 mm; zone of inhibition at 50 µM (Acinetobacter baumannii [25]): 24 mm; zone of inhibition at 50 µM (Pseudomonas aeruginosa [26]): 0 mm; zone of inhibition at 50 µM (Enterobacter cloacae [27]): 15 mm; diameter of the inhibition zone (DIZ) (Enterococcus faecium [28]): 10 mm; diameter of the inhibition zone (DIZ) (Staphylococcus aureus [29]): 25 mm; diameter of the inhibition zone (DIZ) (Klebsiella pneumoniae [30]): 22 mm; diameter of the inhibition zone (DIZ) (Acinetobacter baumannii [31]): 20 mm; diameter of the inhibition zone (DIZ) (Pseudomonas aeruginosa [32]): 28 mm; diameter of the inhibition zone (DIZ) (Enterobacter cloacae [33]): 31 mm; diameter of the inhibition zone (DIZ) (Enterococcus faecium [34]): 17 mm; diameter of the inhibition zone (DIZ) (Staphylococcus aureus [35]): 29 mm; diameter of the inhibition zone (DIZ) (Klebsiella pneumoniae [36]): 24 mm; diameter of the inhibition zone (DIZ) (Acinetobacter baumannii [37]): 25 mm; diameter of the inhibition zone (DIZ) (Pseudomonas aeruginosa [38]): 27 mm; diameter of the inhibition zone (DIZ) (Enterobacter cloacae [39]): 31 mm |
| CC(C)C(C)SN1CCN(c2cc3c(cc2F)c(=O)c(C(=O)O)cn3C2CC2)CC1 (configuration not stated) |  |  |  |  |  |  | 0 | 23 | 26 | 0 | 31 | 25 | 28 | 9 | 26 | 32 | 29 | 29 |  |
| O=C(O)c1cn(C2CC2)c2cc(N3CCN(Sc4ccc([N+](=O)[O-])cc4)CC3)c(F)cc2c1=O |  |  |  |  |  |  | 8 | 24 | 21 | 0 | 27 | 25 | 29 | 11 | 23 | 32 | 23 | 36 |  |
| CCCSN1CCN(c2cc3c(cc2F)c(=O)c(C(=O)O)cn3C2CC2)CC1 | 0.1 (≈ 0.0405 µg/mL) | 1.56 (≈ 0.633 µg/mL) | 50 (≈ 20.3 µg/mL) | 0.2 (≈ 0.0811 µg/mL) | 1.56 (≈ 0.633 µg/mL) | 50 (≈ 20.3 µg/mL) | 0 | 24 | 25 | 0 | 32 | 28 | 29 | 11 | 27 | 38 | 29 | 37 | Ratio (Staphylococcus aureus [7]): 2; Ratio (Staphylococcus aureus [8]): 1; Ratio (Staphylococcus aureus [9]): 1; Drug metabolism [42]: Metabolite detected; fold change (FC) (Staphylococcus aureus [19]): 2 - 3; Activity (Staphylococcus aureus [20]): Active; Activity (Staphylococcus aureus [21]): Active |
| CC(C)SN1CCN(c2cc3c(cc2F)c(=O)c(C(=O)O)cn3C2CC2)CC1 |  |  |  |  |  |  | 0 | 23 | 23 | 0 | 31 | 23 | 21 | 10 | 23 | 36 | 25 | 34 |  |
